Reference: patent EP3907227A1, “TRILOBINE DERIVATIVES AND THEIR USE THEREOF IN THE TREATMENT OF MALARIA” (Institut Pasteur, priority 2020, dated 2021)
Where two headings read alike, the source gives them in different places.

How the values were obtained:
[1] = tested on: P. falciparum NF54 (drug-sensitive line); assay: Inhibition of proliferation of asynchronous asexual cultures (SYBR Green I based assay, 72h); format: cell-based; settings: for IC50: SYBR Green I, read-out: Malaria CI50
Protocol: Compounds were provided at a concentration of 10 mM in DMSO.
P. falciparum parasite are cultured using standard protocol (Trager and Jensen, Science 1976, 193(4254), 673-675). Briefly, parasites are cultured at 4% hematocrit (O+ human blood, Etablissement Français du Sang, France) in RPMI1640 complemented with 0.1% Albumax I, HEPES buffer, hypoxanthine, and gentamycin. They are incubated at 37°C under an atmosphere of 5% CO2 and 5% O2.
Compounds of the invention were assayed for a first screen at 5µM in duplicate against asynchronous asexual cultures of P. falciparum NF54 (drug-sensitive line) containing mostly rings (2% hematocrit. 0.5% starting parasitemia). Plates were incubated for 72h at 37°C under a reduced oxygen atmosphere. Parasite growth was assessed using the SYBR Green I based assay.
IC50 were determined using Graphpad Prism 6 software. Dihydroartemisinin (starting concentration 50nM) and DMSO were used as positive and negative controls.

[2] = tested on: Strain 5150; assay: Inhibition of proliferation of multi-resistant field isolates, asynchronous asexual stages, SYBR-green assay; format: cell-based, P. falciparum; settings: Plasmodium falciparum; 72h; Cambodian isolate resistant to Chloroquine and Pyrimethamine; mean of three replicates; read-out: IC50 nM Strain 5150 mean*
Protocol: (§1) Compounds 63 and 84 were evaluated regarding the inhibition of the proliferation of multi-resistant field isolates adapted to culture. A panel of four Cambodian strains bearing different molecular markers of resistance were selected: 3D7: Laboratory strain, drug-sensitive, 5150: Cambodian isolate resistant to Chloroquine and Pyrimethamine, 6591: Cambodian isolate resistant to Chloroquine, Pyrimethamine, 5248: Cambodian isolate resistant to Chloroquine, Pyrimethamine, Mefloquine and Artemisinin, 6320: Cambodian isolate resistant to Chloroquine, Pyrimethamine, Piperaquine and Artemisinin.
(§2) IC50 were obtained against asynchronous asexual stages using SYBR-green assay after 72h of incubation with a serial dilution of the compounds. Data represents the mean and SD of 3 independent experiments ran in triplicates. Table 2 illustrates mean IC50 values and their standard deviation in nanomolar.

[3] = tested on: Strain 5248; assay: as above; format: cell-based, P. falciparum; settings: Plasmodium falciparum; 72h; Cambodian isolate resistant to Chloroquine, Pyrimethamine, Mefloquine and Artemisinin; mean of three replicates; read-out: IC50 nM Strain 5248 mean*
Protocol: as §1, §2

[4] = tested on: Strain 6320; assay: as above; format: cell-based, P. falciparum; settings: Plasmodium falciparum; 72h; Cambodian isolate resistant to Chloroquine, Pyrimethamine, Piperaquine and Artemisinin; mean of three replicates; read-out: IC50 nM Strain 6320 mean*
Protocol: as §1, §2

[5] = tested on: Strain 6591; assay: as above; format: cell-based, P. falciparum; settings: Plasmodium falciparum; 72h; Cambodian isolate resistant to Chloroquine, Pyrimethamine; mean of three replicates; read-out: IC50 nM Strain 6591 mean*
Protocol: as §1, §2

[6] = tested on: Lab. Strain 3D7; assay: Inhibition of proliferation, asynchronous asexual stages, SYBR-green assay, laboratory strain; format: cell-based, P. falciparum; settings: Plasmodium falciparum, 3D7; 72h; laboratory strain, drug-sensitive; mean of three replicates; read-out: IC50 nM Lab. Strain 3D7 mean*
Protocol: as §1, §2

[7] = tested on: asexual NF54 parasites; assay: Stage-specificity during the asexual cell cycle (6h treatment windows, Giemsa smears); format: cell-based, P. falciparum
Protocol: To assess stage specificity of compounds of the invention, asexual NF54 parasites were tightly synchronized (0 to 3h post-invasion) using gelatin flotation and 5% D-sorbitol-treatment 3h later. […] Following the 6h-treatment, the corresponding cells were pelleted, washed with 10ml RPMI, and put back into culture in 500uL of complete media in a new plate. Parasitemia was assessed at 72 hours post-synchronization using giemsa-stained thin blood smears. Percentage of survival was calculated in comparison to a DMSO-treated control. The data were obtained in three independent experiments.

[8] = tested on: artemisinin-resistant parasites (strains 5150, 6591, 5248 and 6320); assay: Ring-stage Survival Assay (RSA); format: cell-based, P. falciparum; settings: 0-3h rings
Protocol: Since compounds of the invention are active on early ring stage as shown by the experiments on the cell cycle, their ability to kill artemisinin-resistant parasites in the ring-stage survival assay was tested (strains 5150, 6591, 5248 and 6320, Figure 2).
0-3h synchronized ring-stage parasites were exposed to a treatment of 6h with either DMSO, 700nM dihydroartemisinin (DHA), three times the IC50 value of the compound to test or 700nM DHA in combination with three times the IC50 value of the compound to test. Parasitemia was assessed at 72 hours post-synchronization using giemsa-stained thin blood smears. Percentage of survival was calculated in comparison to a DMSO-treated control. The data were obtained in three independent experiments.

[9] = tested on: Parasites; assay: Parasite reduction rate (time needed to kill the parasites); format: cell-based; settings: survival curves, duration of treatment versus log viable parasites, Figure 3
Protocol: Parasites are incubated (see for example Sanz et al. PLoS ONE 7, e30949 (2012)) with a compound of the invention (or a reference) for different time-windows, washed, and diluted serially in 96-well plates in fresh red blood cells. Parasites are kept in culture for 3 to 4 weeks, when growth is assessed to evaluate the number of parasites that survive-correlated to the number of wells where growth is found. Survival curves are obtained by plotting the duration of treatment versus the log of the number of viable parasites (figure 3).

[10] = tested on: P. berghei ANKA strain GFP-expressing parasites; assay: In vivo activity, Peters 4-day suppressive test; settings: C57BL/6 mice, 10mg/kg i.p. daily for four days
Protocol: In vivo activity was determined as previously described (Malmquist et al. Antimicrob. Agents Chemother. 2015, 59 (2), 950-959) following the Peters 4-day suppressive test (Peters, Ann. Trop. Med. Parasitol. 1975, 69 (2), 155-171), with slight modifications. C57BL/6 mice were infected intraperitoneally (i.p.) with 10^5 P. berghei ANKA strain GFP-expressing parasites (Ishino et al. Cell. Mol. Microbiol. 2006, 59 (4), 1175-1184). Two hours post-infection, mice were treated i.p. with a daily regimen of 10mg/kg of compound 84, or 25mg/kg of chloroquine, or the equivalent vehicle control (distillated water) for four days. Parasitemia was quantified from blood samples collected every day by flow cytometry of 50,000 RBCs and confirmed by Giemsa-stained blood smears.

COc1cc2c3c4c1Oc1cc5c(cc1O4)C(Cc1ccc(OCCCN(C)C)c(c1)Oc1ccc(cc1)CC3N(C)CC2)N(C)CC5 (stereo not drawn) [Compound 84] showed an IC50 ([1]; NF54, 72h) of 137 nM, an IC50 ([1]; Plasmodium falciparum, NF54, 72 h) of 130 ± 35 nM and an activity at 5 µM ([1]; Plasmodium falciparum, first screen at 5µM in duplicate, 72h, NF54, read-out: % survival @5uM) of 14.9%. It also gave an IC50 [2] of 251 nM, an IC50 [3] of 346 nM and an IC50 [4] of 183 nM. The IC50 [5] was 167 nM, the IC50 [6] was 136 nM and the “Stage-specificity (survival after 6h treatment windows across the 48h cycle)” value ([7]; synchronized NF54, 6h treatment, parasitemia at 72 hours post-synchronization, Figure 1) was “active throughout the 48h cycle with an increased efficiency between 12 and 42h post-invasion”. The “Concentration from which the compound is active (stage-specificity assay)” value ([7]; tested at one, two and three times the IC50 value) was “active starting from the concentration corresponding to 3 times the IC50 value”, the “Killing of resistant rings (RSA), compound alone” value ([8]; 6h treatment with three times the IC50 value, Figure 2) was “kills resistant rings using three times the IC50 value in a similar manner whichever the strain considered” and the “Killing of parasites (RSA), in combination with DHA” value ([8]; 6h treatment, three times the IC50 value plus 700nM DHA) was “able to kill the parasites of all the tested strains in combination with 700nM dihydroartemisinin (DHA)”. The “Speed of action (parasite reduction rate)” value [9] was “act as fast as dihydroartemisinin (DHA)”, the Severe malaria symptoms [10] was “do not develop severe malaria symptoms” and the Survival after inoculation [10] was 16 days.
